What was measured:
Assay type in all cases: cell-based, human
[1] = system: PC3 cells stably transfected with GFP-LC3; assay: Autophagy assay (GFP-LC3 puncta, LC3 immunoblot); conditions: PC3 GFP-LC3, 5 μM, 24 h
Protocol: PC3 cells were stably transfected with GFP-LC3 [16]. Cells were grown in a 6-well plate to 50% confluence and treated with 5 μM CTA095 for 24 h. Autophagy was visualized by GFP-LC3 “puncta” and immunoblot of Endogenous LC3 isoforms.
Figure 6 Induction of autophagy in PC3 cells by CTA095. Cells were grown in 6-well plate to 50% confluence and treated with CTA095. Autophagy was visualized by GFP-LC3 “puncta” (A) and immunoblot of Endogenous LC3 isoforms (B). All experiments were carried out 24 h after treatment.

PC3 cells [2] = assay: MTT growth inhibition assay
Protocol: Cells were seeded in 96-well plates and cultured overnight, followed by treatment with 0.1% DMSO, as the vehicle control, and CTA095, at the indicated concentrations for 72 h. Growth inhibition was measured using a 3-(4,5-Dimethylthiazol-2-yl)-2,5-diphenyltetrazolium bromide (MTT) assay (Roche Diagnostic, Mannheim, Germany).
Figure 5 Growth Inhibition of CTA095 to LNCAP, CWR22Rv1, PC3 prostate cancer and normal prostate (RWPE1) cells. Cells were seeded at 5,000 cells/well in 96-well plate overnight and treated with CTA095 at the indicated concentrations. The cell viability was measured using MTT assay after 72 h. dots, mean; bars, standard deviation, n = 3.
Figure 9 CTA095 as a chemo sensitizer. Growth Inhibition of CTA095 and in combination with 10 μM chloroquine (CQ), or 2 ng/ml paclitaxel (PTX) to PC3 human prostate cancer cells. Cells were seeded at 5,000 cells/well in 96-well plate overnight and pretreated with the corresponding co-treatments for 1h, then treated with 2.5 μM CTA095. The cell viability was measured using MTT assay after 72 h. Columns, mean; bars, standard deviation, n = 3.

PC3 cells [3] = assay: PC3 cell wound healing assay; conditions: 5 μM, after 48 h
Protocol: PC3 cells were grown in 6-well plate to 60% confluency. Then wounds were made using a tip and treated with CTA095 (0 and 5 μM). Cell migration (wound healing) was visualized under microscope at the indicated times.
Figure 8 Inhibition of tube formation and cell migration by CTA095. Inhibition of vascular tube formation of HUVEC endothelial cells (A) and inhibition of migration (wound healing) of PC3 human prostate cancer cells (B) by CTA095. (A) HUVEC cells were seed on mitrogel and treated with CTA095 (0 and 5 μM) for 6 h. Vascular tube formation was visualized using microscope. (B) PC3 cells were grown in 6-well plate to 60% confluency. Then wounds were made and treated with CTA095 (0 and 5 μM). Cell migration (wound healing) was visualized under microscope at the indicated times.

[4] = system: Akt phosphorylation in PC3 cells; assay: Western blot of Akt phosphorylation; conditions: 24 h
Protocol: (§1) Western blotting was performed as described previously. Proteins were detected using the following antibodies: β-actin (Sigma-Aldrich, Saint Louis, MO), Etk (Santa Cruz Inc., Santa Cruz, CA), pEtk; Src, pSrc; Stat3, pStat3. For phospho-Etk, cells were pre-treated with 100 μM pervanadate for 15 min before harvest.
(§2) Figure 4 Inhibition of cell signaling in PC3 cells following treatment with CTA095. Cells were grown in 10 mm plate to 50% confluence and treated with CTA095. Cells were harvested after 24 h. pEtk, Etk, pSrc, Src, pStat3, Stat3, pAkt and Akt levels were measured using the corresponding antibodies by Western blot. One of three similar experiments depicted.

caspase3/7 in PC3 cells = assay: Caspase-3/7 activity (Apo-ONE Homogeneous assay); conditions: PC3, 0–10 μM, 24 h
Protocol: For caspase 3/7 activities, PC3 cells were seeded at 5,000 cells/well in 96-well plate overnight. Then the cells were treated with 0–10 μM CTA095 for 24 h. Caspase-3/7 activities were measured using the Apo-ONE Homogeneous Caspase-3/7 Assay kit (Promega, Madison, WI) according to the manufacturer's instruction. For caspase 9 activity, PC3 cells were seeded in 10 mm tissue culture plate and grew to 50% confluence. Cells were then treated with 0–10 μM CTA095 for 24 h. Cells were harvested and caspase 9 activity was measured using a Western blot with an anti-caspase 9 antibody.
Figure 7 Induction of apoptosis of PC3 cells following treatment with CTA095. PC3 cells were seeded at 10^6 cells/ml (2 ml) in a 6-well plate overnight and then treated with CTA095 at the indicated concentrations for 24 h. Cell cycle arrest was analyzed using PI staining (A). Apoptosis was analyzed using Annexin-V FITC apoptosis detection kit (B). Caspase 9 activation was measured using western blot (D). For caspase 3/7 activity, PC3 cells were seeded at 5000 cells/well in 96 well plate overnight and treated with CTA095 at 0–10 μM for 24 h. Caspase-3/7 activities were measured using the Apo-ONE Homogeneous Caspase-3/7 Assay kit (Promega, Madison, WI) according to the manufacturer's instruction. Columns, mean; bars, standard deviation, n = 3. […]

PC3-AZD20 cells = assay: Annexin-V FITC apoptosis in Src inhibitor resistant cells; conditions: 10 μM
Protocol: PC3-AZD20 cells were seeded at 10^6 cells/well in 6 well plates overnight. The cells were treated with AZD0530 or CTA095 at 10 μM. Apoptosis was analyzed using Annexin-V FITC apoptosis detection kit. The mRNA levels of Myc and BCL2 were measured using real-time PCR. pEtk, Etk, pSrc, Src, pStat3, Stat3, Myc and BCL2 levels were measured using the corresponding antibodies through a Western blot.
Figure 12 CTA095 induces apoptosis in Src inhibitor resistant prostate cancer cells through Myc and BCL2 inhibition. PC3-AZD20 (PC3 cell resistant to 20 μM AZD0530) cells were seeded at 10^6 cells/well in 6 well plates overnight. The cells were treated with AZD0530 or CTA095 at 10 μM. Apoptosis was analyzed using Annexin-V FITC apoptosis detection kit (A). The mRNA levels of Myc and BCL2 were measured using real-time PCR (B). pEtk, Etk, pSrc, Src, pStat3, Stat3, Myc and BCL2 levels were measured using the corresponding antibodies through Western blot (C). Columns, mean; bars, standard deviation, n = 3.

[5] = system: STAT3 phosphorylation in PC3 cells; assay: Western blot of STAT3 phosphorylation; conditions: 24 h
Protocol: as §1, §2

IC50 (PC3 cells [2]; Homo sapiens, PC-3, PC3, MTT, 72 h): 4.5 µM
SMILES: O=c1[nH]c2cc3nc(-c4ccc5oc6ccccc6c5c4)n(CCCN4CCCCC4)c3cc2nc1-c1ccccc1 [CTA095, 2-(dibenzo[b,d]furan-2-yl)-7-phenyl-1-(3-(piperidin-1-yl)propyl)-1H-imidazo[4,5-g]quinoxalin-6(5H)-one]
autophagy (GFP-LC3 puncta) [1]: extensive distinct “puncta” autophagosome morphology
growth inhibition in combination with chloroquine (CQ) (PC3 cells [2]; PC3, 2.5 μM CTA095 + CQ 10 μM, MTT, 72 h): synergistic effect
growth inhibition in combination with paclitaxel (PTX) (PC3 cells [2]; PC3, 2.5 μM CTA095 + PTX 2 ng/ml, MTT, 72 h): synergistic effect
combination with autophagy inducer RPM (PC3 cells [2]; prostate cancer cells, co-treatment with rapamycin (RPM)): synergizes
wound healing of PC3 cells (PC3 cells [3]): greatly inhibited
Akt phosphorylation [4]: inhibited
activation of caspase3/7 (caspase3/7 in PC3 cells): dose dependent activation
apoptosis in PC3-AZD20 cells (PC3-AZD20 cells): Massive apoptosis was induced
STAT3 phosphorylation [5]: also inhibited
